Measurements from patent US8372871B2, “Histidinol dehydrogenase inhibitors, and use thereof as medicaments” (priority 2008, dated 2013).

Tests used:
[1] = target: B. suis histidinol dehydrogenase (Brucella suis biovar 1, UniProt Q8G2R2); experiment: biochemical; type: biochemical
B. suis = experiment: microbe, parasite or virus in culture; type: cell-based, Brucella suis; settings: for inhibition at 50 µM / inhibition at 100 µM: Brucella suis, 168 h, read-out: Effects on the growth of B. suis (%) (inhibition of bacterial growth)
[2] = test system: B. suis in the macrophage; type: cell-based, Brucella suis

B. suis histidinol dehydrogenase, sequence (Q8G2R2 whole entry, looked up): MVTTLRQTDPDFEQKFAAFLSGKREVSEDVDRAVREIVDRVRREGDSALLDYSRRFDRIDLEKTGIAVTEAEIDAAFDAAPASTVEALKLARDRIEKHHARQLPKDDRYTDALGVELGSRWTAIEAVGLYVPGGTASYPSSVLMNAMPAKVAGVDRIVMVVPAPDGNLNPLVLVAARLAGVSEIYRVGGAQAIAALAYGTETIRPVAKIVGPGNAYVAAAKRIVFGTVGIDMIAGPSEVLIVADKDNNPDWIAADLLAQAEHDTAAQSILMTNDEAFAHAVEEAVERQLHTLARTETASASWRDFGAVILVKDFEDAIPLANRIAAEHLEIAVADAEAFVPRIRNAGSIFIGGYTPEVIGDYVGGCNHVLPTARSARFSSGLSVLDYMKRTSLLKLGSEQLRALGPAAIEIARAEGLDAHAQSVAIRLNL

Row | Compound | IC50 [1] | inhibition at 50 µM (B. suis) | inhibition at 100 µM (B. suis) | Inhibition of the growth of the bacteria in liquid medium (B. suis) | Inhibition of the intracellular proliferation of the bacteria in the macrophage [2] | Affinity for HDH [1]
1 | COc1ccc(-c2ccc(CC(=O)[C@@H](N)Cc3c[nH]cn3)cc2)cc1 [Compound 2c, (3S)-3-amino-4-(1H-imidazol-4-yl)-1-(4′-methoxybiphenyl-4-yl)butan-2-one dihydrochlorhydrate] | 0.02 µM | 30% | 60% | – | – | –
2 | N[C@@H](Cc1c[nH]cn1)C(=O)Cc1ccc(-c2ccc(C(F)(F)F)cc2)cc1 [Compound 2d, (3S)-3-amino-4-(1H-imidazol-4-yl)-1-[4′-(trifluoromethyl)biphenyl-4-yl]butan-2-one dihydrochlorhydrate] | 0.03 µM | 70% | 90% | – | – | –
3 | N[C@@H](Cc1c[nH]cn1)C(=O)Cc1ccc(-c2ccc(Oc3ccccc3)cc2)cc1 [Compound 2f, (3S)-3-amino-4-(1H-imidazol-4-yl)-1-(4′-phenoxybiphenyl-4-yl)butan-2-one dihydrochlorhydrate] | 0.07 µM | 70% | 90% | – | – | –
4 | N[C@@H](Cc1c[nH]cn1)C(=O)Cc1ccc(-c2ccc3ccccc3c2)cc1 [Compound 2h, (3S)-3-amino-4-(1H-imidazol-4-yl)-1-[4-(2-naphthhyl)phenyl] butan-2-one dihydrochlorhydrate] | 0.03 µM | 100% | 100% | completely inhibit | – | –
5 | Cc1ccc(/C=C/c2ccc(CC(=O)[C@@H](N)Cc3c[nH]cn3)cc2)cc1 [Compound 2k, (3S)-3-amino-4-(1H-imidazol-4-yl)-1-{4-[(E)-2-(4-methylphenyl)vinyl]phenyl}butan-2-one dihydrochlorhydrate] | 0.04 µM | 100% | 100% | completely inhibit | – | –
6 | N[C@@H](Cc1c[nH]cn1)C(=O)Cc1ccc(C#Cc2ccccc2)cc1 [Compound 3a, (3S)-3-amino-4-(1H-imidazol-4-yl)-1-[4-(phenylethynyl)phenyl] butan-2-one dihydrochlorhydrate] | 0.003 µM | 100% | 100% | completely inhibit | approximately 1000 times | significant affinity
7 | CC(C)(C)c1ccc(C#Cc2ccc(CC(=O)[C@@H](N)Cc3c[nH]cn3)cc2)cc1 [Compound 3c, (3S)-3-amino-1-{4-[(4-tert-butylphenyl)ethynyl]phenyl}-4-(1H-imidazol-4-yl)butan-2-one dihydrochlorhydrate] | 0.065 µM | 30% | 30% | – | – | –
8 | CCCCCc1ccc(C#Cc2ccc(CC(=O)[C@@H](N)Cc3c[nH]cn3)cc2)cc1 [Compound 3d, (3S)-3-amino-4-(1H-imidazol-4-yl)-1-{4-[(4-pentylphenyl)ethynyl]phenyl}butan-2-one dihydrochlorhydrate] | 0.0085 µM | 30% | 30% | – | – | –
